# Where “and” joins values, the source holds several entries; their conditions need not be identical. Equal values may be shown once.
# Experiment: Effect of different alkalinizing agents on the pH of an acidic solution
# Type: physicochemical
# Procedure: Various alkalinizing agents were added to a solution of 0.1 N HCl with a starting pH of 2.0 and the pH of the solution was tested at different time points.
structure (smiles),measurement,setting,value
"Cl.N=C(N)NCCC[C@H](N)C(=O)O [Arginine HCl, L-arginine-HCl]",pH of 0.1N HCl solution (starting pH 2.0),"100 mg Arginine HCl in 200 ml, time: 10,20,30,40,50,60 min",2.20
"CNC[C@H](O)[C@@H](O)[C@H](O)[C@H](O)CO [Meglumine, meglumine]",pH of 0.1N HCl solution (starting pH 2.0),"120 mg in 200 ml, time: 10,20,30,40,50,60 min",2.16
"CC(=O)[O-].[Na+] [Sodium Acetate, sodium acetate]",pH of 0.1N HCl solution (starting pH 2.0),"200 mg in 200 ml, time: 10,20,30,40,50,60 min",4.96 and 5.08 and 5.21 and 5.34 and 4.73
"O=C([O-])CC(O)(CC(=O)[O-])C(=O)[O-].[Na+].[Na+].[Na+] [Sodium Citrate, sodium citrate]",pH of 0.1N HCl solution (starting pH 2.0),"930 mg in 200 ml, time: 10,20,30,40,50,60 min",5.53
O=C([O-])[O-].[Ca+2] [calcium carbonate],effect on the pH of the solution,"240 mg/320 ml (0.75 mg/ml), 60 minute timecourse",rapidly raised the pH of the solution to neutral or higher
same,effect on the pH of the solution,"120-140 mg/200 ml, 60 minute timecourse",raise the pH of the solution to near neutral or neutral
O=C([O-])[O-].[Mg+2] [magnesium carbonate],pH reached,"80 mg in 200 ml, 30 minute timecourse",above 9
same,pH of 0.1N HCl solution (starting pH 2.0),"100 mg Magnesium Carbonate in 200 ml, time: 10,20,30,40,50,60 min",3.05
[Mg+2].[OH-].[OH-] [magnesium hydroxide],pH of 0.1N HCl solution (starting pH 2.0),"60 mg in 200 ml, time by row: r6-r15=1-10 min, r16-r20=20,30,40,50,60 min",2.96 and 2.99 and 3.00 and 3.01 and 2.50 and 2.66 and 2.83 and 2.92
same,pH of 0.1N HCl solution (starting pH 2.0),"60 mg per 500 mL, time by row: r8-r18=0-10 min, r19-r23=20,30,40,50,60 min",2.12 and 2.17 and 2.18 and 2.19 and 2.01 and 2.06
same,effect on the pH of the solution,"71 mg/200 ml, 81 mg/200 ml and 100 mg/200 ml, 60 minute timecourse",raised the pH of the solution to neutral or higher
same,pH of 0.1N HCl solution (starting pH 2.0),"100 mg per 500 mL, time by row: r8-r18=0-10 min, r19-r23=20,30,40,50,60 min",2.21 and 2.33 and 2.38 and 2.40 and 2.41 and 2.03 and 2.10
same,effect on the pH of the solution,"100 mg/320 ml, 180 mg/500 ml, 120 mg/320 ml, 200 mg/500 ml and 240 mg/500 ml, 60 minute timecourse",rapidly raised the pH of the solution to neutral or higher
[O]=[Mg] [magnesium oxide],effect on the pH of the solution,"160 mg/320 ml (0.5 mg/ml), 60 minute timecourse",rapidly raised the pH of the solution to neutral or higher
same,effect on the pH of the solution,"80-120 mg/200 ml powder and 80 mg granular form in 200 ml, 60 minute timecourse",rapidly raise the pH of the solution to neutral or higher
O=C([O-])O.[Na+] [sodium bicarbonate],pH of 0.1N HCl solution (starting pH 2.0),"20 mg per 320 mL, time by row: r6-r16=0-10 min, r17-r21=20,30,40,50,60 min",2.05 and 2.02 and 2.04
same,effect on the pH of the solution,"20 mg/320 ml and 40 mg/320 ml, 60 minute timecourse",neither amount tested was sufficient to raise the pH to neutral or higher
same,pH of 0.1N HCl solution (starting pH 2.0),"40 mg per 320 mL, time by row: r6-r16=0-10 min, r17-r21=20,30,40,50,60 min",2.08 and 2.09 and 2.05
same,pH of 0.1N HCl solution (starting pH 2.0),"50 mg in 200 ml, time by row: r6-r10=0,10,20,30,40 min",1.72 and 1.71
same,pH of 0.1N HCl solution (starting pH 2.0),"100 mg in 200 ml, time by row: r6-r10=0,10,20,30,40 min",1.75 and 1.71 and 1.76
same,effect on the pH of the solution,"50 and 100 mg/200 ml, 40 minute timecourse",neither tested amount was sufficient to raise the pH
O=C([O-])[O-].[Na+].[Na+] [sodium carbonate],pH of 0.1N HCl solution (starting pH 2.0),"11.13 mg in 200 ml, time by row: r7-r12=0-5 min, r13-r16=10,15,20,60 min",2.80 and 2.66
same,pH of 0.1N HCl solution (starting pH 2.0),"30.11 mg in 200 ml, time by row: r7-r12=0-5 min, r13-r16=10,15,20,60 min",3.25 and 3.26 and 3.27 and 2.57 and 3.21 and 3.24
same,effect on the pH of the solution,"81.68 mg in 200 ml, 60 minute timecourse",raise the pH of the 200 ml solution to above neutral
CCCCCCCCCCCCOS(=O)(=O)[O-].[Na+] [sodium lauryl sulfate],pH of 0.1N HCl solution (starting pH 2.0),"10 mg (10.22 mg actual) in 200 ml, time by row: r6-r16=0-10 min, r17=20, r18=30 min, sulfate",2.67 and 2.68
same,effect on the pH of the solution,"10 mg in 200 ml, 30 minute timecourse",insufficient to substantially raise the pH

# — patent US20190388354A1, “IMPROVED COMPOSITIONS AND METHODS FOR REDUCING OVERDOSE” (priority 2017, published 2019)
